Where two headings read alike, the source gives them in different places.
Columns and labels:
[1] = rats, cited from earlier work
PC12 cells = assay: MTT cell viability assay in neuronal differentiated PC12 cells; format: cell-based, rat; details: 2 h
Method: PC12 cell line (RRID:CVCL_0481), derived from rat adrenal gland pheochromocytoma, was a kind gift from Dr Federica Brugnoli from the Department of Translational Medicine, University of Ferrara, Ferrara (Italy). The cells were grown in RPMI-1640 (HiGlutaXL) medium (Microtech, Naples, Italy), supplemented with 100 µg/mL streptomycin and 100 IU/mL penicillin, 10% horse serum (HS), and 5% fetal bovine serum (FBS). PC12 cells were gently removed from the 4 µg/cm^2 collagen IV-coated flask with a rubber scraper, transferred as cell suspension into a Falcon tube and resuspended through a sterile tip to avoid any clumping, then split into separate flasks twice weekly. To differentiate neuronal phenotypes, PC12 cells were seeded in 4 µg/cm^2 collagen IV-coated 12-well plates at a density of 5000 cells/well, and they were then left to adhere to the well for 24 h. […] All the proliferative and differentiated cultures were maintained at 37 °C in a humidified 5% CO2 atmosphere.
The 100% of cell viability was stated as control in the absence of compound. Then, incubation buffer was withdrawn, and 0.2 mL per well of a solution of MTT 500 µg/mL was added to each well and kept for 2 h at 37 °C in a humidified atmosphere at 95% with 5% CO2. After the conversion of the substrate to a chromogenic product by metabolically active cells, the MTT solution was removed, and the purple MTT formazan crystals were solubilized with 0.1 mL/well of DMSO for 60 min at 37 °C. The absorbance of each sample was measured with a multiplate reader spectrophotometer (Sunrise® Microplate Reader, Tecan Trading AG, Männedorf, Switzerland) at 570 nm, using 690 nm as a reference wavelength. Cell viability, proportional to absorbance, was reported as ratio between the absorbance resulting from the treatments and absorbance resulting from the control, considered as 100% of viable cells. Data were plotted as graphs and analyzed using GraphPad software (Prism, version 7.0, San Diego, CA, USA).

in vivo [2] = details: male, Wistar, rat, in vivo, iv
Method: A saline solution (0.9% NaCl) was added to a mixture of cinnamaldehyde (density = 1.05 g/mL) and Cremophor® RH 40 (1:1 v/v) in order to obtain a 12.5 mg/mL cinnamaldehyde emulsion in the presence of ethanol (10% of final volume). A group (n = 4) of male Wistar rats (200–250 g) fasted for 24 h was anesthetized during the experimental period and received 0.4 mL via a femoral intravenous infusion (rate = 0.2 mL/min; 2 min) of 12.5 mg/mL cinnamaldehyde emulsion (20 mg/kg cinnamaldehyde dose).
(§1) At the end of the infusions and at fixed time points, CSF samples (50 μL) were withdrawn and blood samples (100 μL) were collected. The CSF was withdrawn using the cisternal puncture method described by van den Berg et al., which requires a single needle stick and allows the collection of serials (40–50 μL) CSF samples that are virtually blood-free. A total volume of about a maximum of 150 μL of CSF/rat (i.e., three 50 μL samples/rat) was collected during the experimental session, choosing the time points (n = 3–5, taking into account a maximum of three collections per rat) in order to allow the restoring of the CSF physiological volume.
The chromatographic apparatus consisted of a modular system (model LC-10 AD VD pump and model SPD-10A VP variable wavelength UV−vis detector; Shimadzu, Kyoto, Japan) and an injection valve with 20 μL sample loop (model 7725; Rheodyne, IDEX, Torrance, CA, USA). Separations were performed at room temperature on a 5 μm Hypersil BDS C-18 column (150 mm × 4.6 mm i.d.; Alltech Italia Srl, Milan, Italy) equipped with a guard column packed with the same Hypersil material. The volume injection was 10 μL. Data acquisition and processing were performed on a personal computer using CLASS-VP Software, version 7.2.1 (Shimadzu Italia, Milan, Italy).
For CSF simulation, standard aliquots of balanced solution (Dulbecco’s phosphate buffer saline—DPBS—without calcium and magnesium) in the presence of 0.45 mg/mL BSA were used.

in vivo [3] = details: rat, po
Method: as §1
Each type of formulation was administered to a group of four rats.
In particular, 4.2 mL of EU-CD formulation were administered to rats (500 mg/kg dose).
In particular, 320 μL of EU-SL formulation were administered to rats (500 mg/kg dose).
Free cinnamaldehyde (100 mg) was orally administered by gavage to rats kept fasting since 24 h. In particular, 95 μL of cinnamaldehyde (density = 1.05 g/mL) were dissolved in 905 μL of corn oil and administered to rats (400 mg/kg dose).
The solid AC-GN formulation (14% w/w cinnamaldehyde) was mixed with palatable food in order to induce their oral intake by the rats kept fasting since 24 h. In particular, the rats assumed a dose of 100 mg of cinnamaldehyde (400 mg/kg) contained in 714 mg of AC-GN.
After the administrations, blood (100 μL) and CSF samples (50 μL) were serially collected at fixed time points from each rat and treated as described above in order to quantify the compounds.

C=CCc1ccc(O)c(OC)c1 [Eugenol]
t1/2 of the second elimination phase ([1]; iv eugenol): 13 to 20 min
Cmax ([1]; oral 40 mg/kg): about 0.25 μg/mL
increase of cell viability over the untreated cell value (PC12 cells; 25 µM, 37 °C, NGF-differentiated PC12): 2.5 times
effect on cell viability compared to untreated control (PC12 cells; 2, 25, 50 and 100 µM, p < 0.0001, no toxic impact): statistically significant increase in cell viability
most effective concentration in increasing cell viability (PC12 cells; tested 2, 25, 50 and 100 µM): 25 µM
Tmax: time of Cmax in CSF (in vivo [2]): 10 min
AUC (in vivo [2]; 20 mg/kg): 0.935 µg·h/mL
Cmax (in vivo [2]; 20 mg/kg): 2.79 ± 0.18 µg/mL
time within which CSF concentrations decreased to zero or near to zero (in vivo [2]; 20 mg/kg): ≤ 45 min
Kp at 10 min (in vivo [2]; R: ratio of concentration between CSF and bloodstream at Tmax): 0.96
AUC (in vivo [3]): 0.516 µg·h/mL
Tmax: time of Cmax in CSF (in vivo [3]): 20 min

Source: PMC9862186 (International Journal of Molecular Sciences, 2023)
